According to publication PMC2233693 (The Journal of General Physiology, 2000):
Residue numbers refer to the chain shown, from its start. Where two headings read alike, the source gives them in different places.

Key:
[1] = target: T1, E340G mutant bovine olfactory CNG channel (Bos taurus, UniProt Q03041, E340G); test: Blockage of macroscopic current by internal Ca2+, inside-out patches; format: biochemical; conditions: read-out: K i for internal Ca2+ blockage, +80 mV, 1 mM cGMP, average
T1 sequence (Q03041 1-663 E340G): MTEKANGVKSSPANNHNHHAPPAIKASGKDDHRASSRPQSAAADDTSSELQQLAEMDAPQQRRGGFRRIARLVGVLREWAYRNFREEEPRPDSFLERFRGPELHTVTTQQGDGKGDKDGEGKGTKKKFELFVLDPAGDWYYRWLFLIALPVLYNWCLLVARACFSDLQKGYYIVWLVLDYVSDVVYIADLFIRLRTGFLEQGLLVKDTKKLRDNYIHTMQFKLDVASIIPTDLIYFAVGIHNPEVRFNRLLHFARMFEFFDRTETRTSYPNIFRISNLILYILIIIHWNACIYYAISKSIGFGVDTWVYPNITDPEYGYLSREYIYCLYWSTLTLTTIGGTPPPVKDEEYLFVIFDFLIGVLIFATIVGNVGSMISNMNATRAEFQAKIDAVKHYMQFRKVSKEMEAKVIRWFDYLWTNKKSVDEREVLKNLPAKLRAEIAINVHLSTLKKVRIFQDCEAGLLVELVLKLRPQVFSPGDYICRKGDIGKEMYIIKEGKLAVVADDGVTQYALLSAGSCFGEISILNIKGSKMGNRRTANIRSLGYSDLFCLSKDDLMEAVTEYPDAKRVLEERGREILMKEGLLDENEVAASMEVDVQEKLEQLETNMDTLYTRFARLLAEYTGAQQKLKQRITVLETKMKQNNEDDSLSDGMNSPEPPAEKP

[2] = target: T2, E340N mutant bovine olfactory CNG channel (Bos taurus, UniProt Q03041, E340N); format: biochemical; conditions: for P max (+80 mV) / P max (−80 mV): cGMP
T2 sequence (Q03041 1-663 E340N): T1 sequence (Q03041 1-663 E340G) with G340N

[3] = 3 μM cGMP, +80 mV, amplitude histogram, Fig. 3
[4] = 100 μM cGMP, +80 mV, amplitude histogram, Fig. 3
[5] = high level of current determined with respect to low level

Row | Ki [1] [µM] | P closed [2, 3] | P o,high [2, 3] | P closed [2, 4] | P o,high [2, 4] | P o,low [2, 4] | P max (+80 mV) [2, 5] | P max (−80 mV) [2, 5] | P max (+80 mV) ([2]; low level of current) | P max (−80 mV) ([2]; low level of current) | Structure (SMILES)
1 | 1500 ± 400 |  |  |  |  |  |  |  |  |  | [Ca+2] [Ca^2+]
2 |  | 0.765 | 0.015 | 0.01 | 0.065 | 0.925 | 0.10 ± 0.07 | 0.04 ± 0.01 | 0.87 ± 0.02 | 0.96 ± 0.01 | Nc1nc2c(ncn2[C@@H]2O[C@@H]3COP(=O)(O)O[C@H]3[C@H]2O)c(=O)[nH]1 [cGMP]
